Laboratory results reported in patent US20080305097A1, “Use of Protease or a Protease Inhibitor for the Manufacture of Medicaments” (YEDA RESEARCH AND DEVELOPMENT CO., LTD., priority 2004, published 2008).

Columns and labels:
HGF = experiment: Semi quantitative RT-PCR of BM after LPS: HGF; type: in vivo, mouse; details: LPS treated mice, 5 days
Procedure: (§1) One femur of each mouse was flushed with Trireagent for RNA extraction. 1 ug RNA was used for the preparation of cDNA. Semi quantitative RT-PCR was used to measure the transcription of mouse SDF-1, HGF and CTK. The following primers were used: SDF-1 (Ponomaryov, 2000, J. Clin. Invest. 106:1331): left primer (SEQ ID NO: 1) 5′-[…]-3′, right primer (SEQ ID NO: 2) 5′-[…]-3′. HGF (Weinstein, 2001, Moll Cell boil, 21(15):5122): left primer (SEQ ID NO: 3) 5′-[…]-3′, right primer (SEQ ID NO: 4) 5′-[…]-3′. CTK: left primer (SEQ ID NO: 5) 5′-[…]-3′, right primer (SEQ ID NO: 6) 5′-[…]-3′.

CXCR4 = CXCR4 expression in BM and PB by flow cytometry after LPS; type: in vivo, Balb/c mice; details: both BM and PB, 16 hours post LPS
Procedure: We monitored CXCR4 expression in BM and PB of LPS treated mice, 16 hours post LPS administration, and in control non treated mice.

mononuclear cells (MNC) = experiment: Mononuclear cell counts in BM and PB by hemacytometer after LPS; type: in vivo, Balb/c mice; details: 16 hours post LPS, versus non treated mice
Procedure: (§2) In order to verify that the progenitor increase detected in PB in the LPS treated mice, results from the egress or mobilization of cells from the bone marrow, mononuclear cells (MNC) were monitored in the BM and in PB by counting numbers of ficolled WBC (leukocytes), using hemacytometer shortly after LPS treatment (16 hours post LPS treatment) and in BM and PB of non treated mice (FIG. 3).

CTK = experiment: Semi quantitative RT-PCR of BM after LPS: CTK; type: in vivo, mouse; details: LPS treated mice, 5 days
Procedure: as §1

TRAP+ osteoclasts = experiment: TRAP staining of activated osteoclasts in BM after LPS; type: in vivo, Balb/c mice; details: LPS 250 μg/mouse single injection, 5 days later
Procedure: LPS (Sigma) was administered to Balb/c mice in a single subcutaneous injection of 250 μg/mouse, and saline was injected instead of LPS in control groups. 5 days following LPS administration, mice were sacrificed, bones were fixed, decalcified, paraffin embedded and sectioned, BM harvested, and the level of TRAP+ osteoclast (activated osteoclast) monitored.
In this assay substrate is exogeneously provided to measure intrinsic activity of the tissue TRAP in the BM of LPS treated mice (FIGS. 1A and B).

SDF-1 [1] = experiment: Semi quantitative RT-PCR of BM after LPS: SDF-1; type: in vivo, mouse; details: LPS treated mice, 5 days
Procedure: as §1

SDF-1 [2] = experiment: SDF-1 concentration in bone marrow by ELISA after LPS; type: in vivo, Balb/c mice
Procedure: Mice were administered for 5 days with LPS as described in example 1 and SDF-1 concentration in bone marrow was monitored (by ELISA as described by Petit et al 2002).
as §2

progenitors = experiment: CFU assay of progenitors in peripheral blood after LPS; type: in vivo, Balb/c mice
Procedure: Mice were administered for 5 days with LPS (as described in Example 1) and progenitor increase in peripheral blood (PB) was measured (as in Example 9).
(§3) In order to detect the levels of mouse progenitors in the blood circulation, semisolid cultures were performed as previously described (Petit, Nat Immunol, 2002). In brief, mouse BM cells (3×10^5 cells/ml) were plated in 0.9% methylcellulose (Sigma), 30% FCS, 5×10^−5M 2ME, 50 ng/ml SCF, 5 ng/ml IL-3, 5 ng/ml GM-CSF (R&D), and 2 u/ml erythropoietin (Orto Bio Tech, Don Mills, Canada). The cultures were incubated at 37° C. in a humidified atmosphere containing 5% CO2 and scored 7 days later by inverted microscopy by morphologic criteria.

[3] = system: hematopoietic progenitor cell (HPC); experiment: In vivo progenitor mobilization by SDF-1 or HGF, semi solid culture; parameters: species or system Balb/c mice; details: subcutaneously five consecutive days, 10 mcg SDF-1 or 1.5 mcg HGF
Procedure: (§4) We carried out the following experiment to verify in vivo our hypothesis that SDF-1 induces osteoclast activation and hematopoietic progenitor cell (HPC) mobilization. Balb/c mice were injected subcutaneously for five consecutive days with 10 mcg SDF-1 or 1.5 mcg HGF or both, and osteoclast activation (measured by TRAP+ staining as in Example 1) and mobilization to the peripheral blood, (assayed in semi solid culture as in Example 1) was determined.
as §3

osteoclast = experiment: In vivo osteoclast activation by SDF-1 or HGF, TRAP staining; parameters: species or system Balb/c mice; details: subcutaneously five consecutive days, 10 mcg SDF-1 or 1.5 mcg HGF
Procedure: as §4

SDF-1 [4] = experiment: SDF-1 transcription (RT-PCR) and secretion (ELISA) in primary calvaria osteoblasts; type: cell-based, mouse; details: 50 ng/ml, 3 days
Procedure: Osteoblast were incubated with G-CSF, HGF or remained untreated, and SDF-1 transcription and expression was determined in such cells (FIG. 9).
Primary calvaria osteoblasts were cultured for 3 days in the presence of SDF-1 (PeproTech, 100 […]), HGF (PeproTech, 50 ng/ml) and G-CSF (Filgrastin, Roche, 50 ng/ml). Conditioned media was collected to determine SDF-1 concentration by ELISA, as described in Example 2. Determination of SDF-1 transcription and expression as in Example 2.

[5] = system: TRAP+ multinucleated osteoclasts; experiment: Osteoblast/BM co-culture, TRAP+ multinucleated osteoclast count; type: cell-based, mouse; details: G-CSF 50 ng/ml, HGF 50 ng/ml, SDF-1 10 and 100 ng/ml; 5 days
Procedure: Osteoclast precursors are stimulated by cell-cell contact with osteoblasts to become activated multinucleated TRAP+ bone resorbing cells. To obtain active osteoclasts in vitro, a clvarian osteoblasts are incubated with Vitamine D3 and PG2E which potentiate their M-CSF production and RANKL expression, needed for osteoclast activation. BM cells which contain osteoclast precursors are seeded then on the osteoblast monolayer, for 5 days, to obtain active multinucleated osteoclasts.
A co-culture of primary mouse osteoblasts and BM (containing ocl precursors as detailed above) was seeded in the presence of G-CSF (50 ng/ml), HGF (50 ng/ml), or SDF-1 (10 and 100 ng/ml). Five days later, TRAP+ multinucleated osteoclasts in the cultures were stained (as described in Example 1) and counted 5 days later.

Substance	HGF transcription in the BM (HGF)	level of CXCR4 expression (CXCR4)	decrease of MNC cells in the BM (mononuclear cells (MNC))	increase of MNC cells in the PB (mononuclear cells (MNC))	CTK transcription in the BM (CTK)	TRAP+ osteoclasts in the BM (TRAP+ osteoclasts)	SDF-1 transcription in the BM (SDF-1 [1])	decrease in BM SDF-1 concentration (SDF-1 [2]; 16 hours post LPS, versus non treated mice)	BM SDF-1 concentration (SDF-1 [2]; 5 days LPS) [ng/mg protein]	decrease in BM SDF-1 concentration (SDF-1 [2]; 5 days LPS, versus non-treated control)	progenitor mobilization (progenitors; 16 hours post LPS)	level of progenitors in PB, higher than control non-treated mice (progenitors; 5 days LPS)	progenitor colonies in PB (progenitors; 5 days LPS)	mobilization of progenitors in vivo [3]	osteoclast activation in vivo (osteoclast)	SDF-1 transcription in osteoblasts (SDF-1 [4])	SDF-1 production in osteoblasts (SDF-1 [4]; conditioned media ELISA)	level of activated TRAP+ osteoclasts [5]
lipopolysaccharide [LPS]	dramatic increase	significant increase	about 53%	about 78%	dramatic increase	dramatic increase in TRAP+ osteoclasts	decrease	about 55%	0.4	about 66%	significant increase in progenitor mobilization	about 95%	about 100 colonies per 5×10^5 seeded cells	–	–	–	–	–
HGF: hepatocyte growth factor (PeproTech)	–	–	–	–	–	–	–	–	–	–	–	–	–	induced	induced	induce	induce	significantly increased
